# Laboratory results: the Kinase Knowledgebase extract (Sharma et al. 2016)
# Experiments:
# [1] = target: EGFR (human) (UniProt P00533); settings: a431
# [2] = target: EGFR (human), P00533 [WT]
# [3] = target: EGFR (human), P00533 [T790M]
# Chain of EGFR (human), P00533 [T790M] (P00533 whole entry T790M, looked up): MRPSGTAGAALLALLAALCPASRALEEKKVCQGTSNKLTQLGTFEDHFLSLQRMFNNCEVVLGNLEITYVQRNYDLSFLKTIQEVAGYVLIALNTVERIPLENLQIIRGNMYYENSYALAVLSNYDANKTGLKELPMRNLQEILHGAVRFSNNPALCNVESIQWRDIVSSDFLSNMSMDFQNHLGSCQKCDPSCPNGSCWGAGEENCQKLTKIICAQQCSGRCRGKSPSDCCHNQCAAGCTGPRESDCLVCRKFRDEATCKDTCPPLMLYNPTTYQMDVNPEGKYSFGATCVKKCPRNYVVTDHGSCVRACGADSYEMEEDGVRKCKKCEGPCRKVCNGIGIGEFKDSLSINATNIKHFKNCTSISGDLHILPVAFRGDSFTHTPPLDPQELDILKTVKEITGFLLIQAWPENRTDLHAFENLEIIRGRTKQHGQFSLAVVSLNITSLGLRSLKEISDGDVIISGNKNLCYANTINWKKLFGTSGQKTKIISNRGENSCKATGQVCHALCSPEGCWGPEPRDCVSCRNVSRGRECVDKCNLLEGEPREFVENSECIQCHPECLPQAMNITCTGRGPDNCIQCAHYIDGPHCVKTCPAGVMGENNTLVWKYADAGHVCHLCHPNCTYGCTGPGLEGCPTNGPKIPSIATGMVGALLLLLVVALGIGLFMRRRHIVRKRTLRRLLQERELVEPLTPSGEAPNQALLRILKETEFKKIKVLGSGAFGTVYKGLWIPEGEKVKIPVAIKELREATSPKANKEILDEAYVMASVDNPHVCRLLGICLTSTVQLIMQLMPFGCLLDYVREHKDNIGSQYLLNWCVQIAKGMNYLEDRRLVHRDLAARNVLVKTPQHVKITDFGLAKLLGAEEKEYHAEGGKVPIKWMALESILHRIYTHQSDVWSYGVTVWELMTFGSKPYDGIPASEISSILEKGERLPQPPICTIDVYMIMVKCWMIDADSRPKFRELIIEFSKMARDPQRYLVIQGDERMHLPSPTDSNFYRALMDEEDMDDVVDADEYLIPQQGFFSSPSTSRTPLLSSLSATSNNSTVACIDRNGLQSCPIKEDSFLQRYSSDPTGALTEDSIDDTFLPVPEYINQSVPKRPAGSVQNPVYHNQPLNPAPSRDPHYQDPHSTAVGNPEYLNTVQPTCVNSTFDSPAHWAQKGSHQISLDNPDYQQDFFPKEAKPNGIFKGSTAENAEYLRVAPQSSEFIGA
# Chain of EGFR (human) (P00533 whole entry, looked up): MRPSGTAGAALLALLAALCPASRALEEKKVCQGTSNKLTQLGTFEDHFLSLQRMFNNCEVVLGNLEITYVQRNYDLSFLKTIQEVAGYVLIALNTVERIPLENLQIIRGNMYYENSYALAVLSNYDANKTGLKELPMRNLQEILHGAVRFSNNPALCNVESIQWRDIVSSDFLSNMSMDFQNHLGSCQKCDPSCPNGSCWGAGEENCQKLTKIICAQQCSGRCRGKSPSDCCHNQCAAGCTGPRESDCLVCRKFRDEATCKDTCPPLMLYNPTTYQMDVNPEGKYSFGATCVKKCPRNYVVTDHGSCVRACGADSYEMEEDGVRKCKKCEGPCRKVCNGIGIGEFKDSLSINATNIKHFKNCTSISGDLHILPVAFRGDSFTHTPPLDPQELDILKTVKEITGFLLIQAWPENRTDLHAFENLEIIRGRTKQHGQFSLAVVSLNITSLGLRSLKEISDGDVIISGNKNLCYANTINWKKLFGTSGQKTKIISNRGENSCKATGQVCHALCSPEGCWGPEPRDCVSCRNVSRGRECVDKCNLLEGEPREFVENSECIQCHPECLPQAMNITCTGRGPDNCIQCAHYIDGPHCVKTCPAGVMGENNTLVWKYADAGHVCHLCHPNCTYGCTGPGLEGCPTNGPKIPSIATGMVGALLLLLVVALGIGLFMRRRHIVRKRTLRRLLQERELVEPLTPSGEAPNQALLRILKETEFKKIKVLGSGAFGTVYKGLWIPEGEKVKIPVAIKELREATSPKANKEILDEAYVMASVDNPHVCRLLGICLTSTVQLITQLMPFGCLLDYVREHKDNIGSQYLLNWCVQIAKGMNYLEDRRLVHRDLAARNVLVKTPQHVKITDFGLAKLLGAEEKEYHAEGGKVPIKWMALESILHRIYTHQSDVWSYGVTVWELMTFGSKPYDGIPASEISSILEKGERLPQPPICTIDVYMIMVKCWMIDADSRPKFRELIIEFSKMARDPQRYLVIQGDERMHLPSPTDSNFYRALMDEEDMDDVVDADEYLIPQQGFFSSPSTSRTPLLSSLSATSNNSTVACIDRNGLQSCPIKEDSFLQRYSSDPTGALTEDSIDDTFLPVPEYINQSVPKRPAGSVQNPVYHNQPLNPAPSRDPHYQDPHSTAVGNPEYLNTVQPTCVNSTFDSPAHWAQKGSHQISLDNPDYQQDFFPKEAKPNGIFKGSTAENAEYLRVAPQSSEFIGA
# Chain of EGFR (human), P00533 [WT] (P00533 whole entry, looked up): as above
SMILES,IC50 [1] [nM],IC50 [2] [nM],IC50 [3] [nM]
C=C(CN(CC)CC)C(=O)NCc1cc(-c2cncnc2Nc2ccc(OCc3ccccn3)c(Cl)c2)on1,391,,
C=C(CN(C)C)C(=O)NCc1cc(-c2cncnc2Nc2ccc(OCc3ccccn3)c(Cl)c2)on1,1,8.8,12.3
CN(C)C/C=C/C(=O)NCc1cc(-c2cncnc2Nc2ccc(OCc3cccc(F)c3)c(Cl)c2)on1,111,,
C=CC(=O)NCc1coc(-c2c(N)ncnc2Nc2ccc(F)c(Cl)c2)n1,,,50.1
C=CC(=O)NCc1coc(-c2c(N)ncnc2Nc2ccc(F)c(C)c2)n1,91.2,,
C=CC(=O)NCc1cc(-c2cncnc2Nc2ccc(OCc3cccc(F)c3)c(Cl)c2)on1,79,10.3,40.8
C=CC(=O)NCCc1cc(-c2cncnc2Nc2ccc(OCc3cccc(F)c3)c(Cl)c2)on1,504,,
C=CC(=O)NCc1coc(-c2c(N)ncnc2Nc2ccc(Oc3ccccn3)c(Cl)c2)n1,,4.2,16
C=C(CN(C)C)C(=O)NCc1coc(-c2cncnc2Nc2ccc(F)c(Cl)c2)n1,98.6,,
Nc1ncnc(Nc2ccc(OCc3ccccn3)c(Cl)c2)c1-c1nc(CNC(=O)CCO)co1,137,,
Cc1ccc(Oc2ccc(Nc3ncnc(N)c3-c3nc(CNC(=O)/C=C/CN(C)C)co3)cc2C)cn1,326,,
CN(C)C/C=C/C(=O)NCc1coc(-c2c(N)ncnc2Nc2ccc(Oc3ccccc3)c(Cl)c2)n1,78.5,,
C=CC(=O)N(C)Cc1cc(-c2cncnc2Nc2ccc(OCc3cccc(F)c3)c(Cl)c2)on1,68.7,,
CN(C)C/C=C/C(=O)NCc1coc(-c2cncnc2Nc2ccc(OCc3ccccn3)c(Cl)c2)n1,119,4.5,156
CN(C)C/C=C/C(=O)NCc1cc(-c2cncnc2Nc2ccc(OCc3ccccn3)c(Cl)c2)on1,5,,
C=CC(=O)NCc1coc(-c2c(N)ncnc2Nc2ccc(Oc3cccnc3)c(Cl)c2)n1,,,22.1
C=CC(=O)NCc1coc(-c2c(N)ncnc2Nc2ccc(Oc3ccc(C)nc3)c(C)c2)n1,,,106
C=CC(=O)NCc1cc(-c2cncnc2Nc2ccc(Br)c(Cl)c2F)on1,65,,
C=CC(=O)NCc1coc(-c2c(N)ncnc2Nc2ccc(OCc3ccccn3)cc2F)n1,,8.5,171
C=C(CN1CCN(C)CC1)C(=O)NCc1cc(-c2cncnc2Nc2ccc(OCc3ccccn3)c(Cl)c2)on1,309,,
C=C(CN1CCCC1)C(=O)NCc1cc(-c2cncnc2Nc2ccc(OCc3ccccn3)c(Cl)c2)on1,266,,
CN(C)C/C=C/C(=O)NCc1coc(-c2c(N)ncnc2Nc2ccc(F)c(Cl)c2)n1,88,,
C=CC(=O)NCc1coc(-c2cncnc2Nc2ccc(F)c(Cl)c2)n1,437,,
Nc1ncnc(Nc2ccc(Oc3ccccc3F)c(Cl)c2)c1-c1nc(CNC(=O)CO)co1,159,,

SMILES,IC50 [1] [nM],IC50 [2] [nM],IC50 [3] [nM]
C=CC(=O)NCc1coc(-c2c(N)ncnc2Nc2ccc(Sc3nccn3C)c(Cl)c2)n1,424,,
C=CC(=O)NCc1coc(-c2c(N)ncnc2Nc2ccc(Oc3ccnn3C)c(Cl)c2)n1,8.4,8.4,125
C=CC(=O)NCc1coc(-c2c(NC(C)=O)ncnc2Nc2ccc(Oc3cc(C(F)(F)F)nn3C)c(Cl)c2)n1,,45.4,414
C=CC(=O)NCc1coc(-c2c(NC(C)=O)ncnc2Nc2ccc(OCc3ccccn3)c(Cl)c2)n1,14.2,,
C=CC(=O)NCC1COC(c2c(N)ncnc2Nc2ccc(OCc3ccccn3)c(Cl)c2)=N1 (centres undefined),130,,
C=C(CN(C)C)C(=O)NCc1coc(-c2c(N)ncnc2Nc2ccc(F)c(Cl)c2)n1,26,,6.9
C=C(CN(C)C)C(=O)NCc1coc(-c2cncnc2Nc2ccc(OCc3ccccn3)c(Cl)c2)n1,313,3.5,3.4
C=C(CN(C)C)C(=O)NCc1coc(-c2c(N)ncnc2Nc2ccc(Oc3ccc(C)nc3)c(C)c2)n1,352,,
C=CC(=O)NCc1coc(-c2cncnc2Nc2ccc(OCc3ccccn3)c(Cl)c2)n1,,3.9,13.6
C=CC(=O)N1CCC(c2cc(-c3cncnc3Nc3ccc(OCc4cccc(F)c4)c(Cl)c3)on2)CC1,3080,,
C=CC(=O)NCc1cc(-c2cncnc2Nc2ccc(OCc3ccccn3)c(Cl)c2)on1,2,9.1,101
O=C(/C=C\CO)NCc1cc(-c2cncnc2Nc2ccc(OCc3ccccn3)c(Cl)c2)on1,618,,
CN(C)C/C=C/C(=O)NCc1coc(-c2c(N)ncnc2Nc2ccc(OCc3ccccn3)c(Cl)c2)n1,29,6.1,161
C=C(CN1CCOCC1)C(=O)NCc1cc(-c2cncnc2Nc2ccc(OCc3ccccn3)c(Cl)c2)on1,182,21.3,
C=CC(=O)NCc1coc(-c2c(N)ncnc2Nc2ccc(Oc3ccccc3)c(Cl)c2)n1,,7,3.3
C=C(CN(C)C)C(=O)NCc1coc(-c2c(N)ncnc2Nc2ccc(OCc3ccccn3)c(Cl)c2)n1,190,3.2,2.5
C=CC(=O)NCc1coc(-c2c(N)ncnc2Nc2ccc(Oc3cc(Cl)ccc3Cl)c(Cl)c2)n1,,3.9,3.2
COCCC(=O)NCc1coc(-c2c(N)ncnc2Nc2ccc(Oc3ccccc3F)c(Cl)c2)n1,291,,
C=C(CS(C)(=O)=O)C(=O)NCc1cc(-c2cncnc2Nc2ccc(OCc3ccccn3)c(Cl)c2)on1,289,,
C=CC(=O)NCc1coc(-c2c(N)ncnc2Nc2ccc(OCc3cccc(F)c3)c(Cl)c2)n1,,27.7,19
C=CC(=O)N1CCCC(c2cc(-c3cncnc3Nc3ccc(OCc4cccc(F)c4)c(Cl)c3)on2)C1 (centres undefined),1040,,
C=CC(=O)N1CCCC1c1cc(-c2cncnc2Nc2ccc(OCc3cccc(F)c3)c(Cl)c2)on1 (centres undefined),131,,
C=CC(=O)NCc1coc(-c2c(N)ncnc2Nc2ccc(OCc3ccccn3)c(F)c2)n1,,4.9,129
Nc1ncnc(Nc2ccc(Oc3ccccc3F)c(Cl)c2)c1-c1nc(CNC(=O)CCO)co1,826,,
